Experimental data taken from ChEMBL document CHEMBL5725277, “Pyrazine derivatives as CB2 receptor agonists” (2016).

Tests used:
[1] = target: Cannabinoid receptor 1 (Homo sapiens, UniProt P21554); test: (§1) cAMP Assay: CHO cells expressing human CB1 or CB2 receptors are seeded 17-24 hours prior to the experiment 50.000 cells per well in a black 96 well plate with flat clear bottom (Corning Costar #3904) in DMEM (Invitrogen No. 31331), 1xHT supplement, with 10% fetal calf serum and incubated at 5% CO2 and 37° C. in a humidified incubator. The growth medium was exchanged with Krebs Ringer Bicarbonate buffer with 1 mM IBMX and incubated at 30° C. for 30 min. Compounds were added to a final assay volume of 100 ul and incubated for 30 min at 30° C. Using the cAMP-Nano-TRF detection kit the assay (Roche Diagnostics) was stopped by the addition of 50 ul lysis reagent (Tris, NaCl, 1.5% Triton X100, 2.5% NP40, 10% NaN3) and 50 ul detection solutions (20 uM mAb Alexa700-cAMP 1:1, and 48 uM Ruthenium-2-AHA-cAMP) and shaken for 2 h at room temperature. The time-resolved energy transfer is measured by a TRF reader (Evotec Technologies GmbH), equipped with a ND:YAG laser as excitation source. The plate is measured twice with the excitation at 355 nm and at the emission with a delay of 100 ns and a gate of 100 ns, total exposure time 10 s at 730 (bandwidth 30 nm) or 645 nm (bandwidth 75 nm), respectively. The FRET signal is calculated as follows: FRET=T730-Alexa730-P (T645-B645) with P=Ru730-B730/Ru645-B645, where T730 is the test well measured at […], T645 is the test well measured at 645 nm, B730 and B645 are the buffer controls at 730 nm and 645 nm, respectively. cAMP content is determined from the function of a standard curve spanning from 10 uM to 0.13 nM cAMP. EC50 values were determined using Activity Base analysis (ID Business Solution, Limited). The EC50 values for a wide range of cannabinoid agonists generated from this assay were in agreement with the values published in the scientific literature.
[2] = target: Cannabinoid receptor 2 (Homo sapiens, UniProt P34972); test: as §1
Sequence of Cannabinoid receptor 2 (P34972 whole entry): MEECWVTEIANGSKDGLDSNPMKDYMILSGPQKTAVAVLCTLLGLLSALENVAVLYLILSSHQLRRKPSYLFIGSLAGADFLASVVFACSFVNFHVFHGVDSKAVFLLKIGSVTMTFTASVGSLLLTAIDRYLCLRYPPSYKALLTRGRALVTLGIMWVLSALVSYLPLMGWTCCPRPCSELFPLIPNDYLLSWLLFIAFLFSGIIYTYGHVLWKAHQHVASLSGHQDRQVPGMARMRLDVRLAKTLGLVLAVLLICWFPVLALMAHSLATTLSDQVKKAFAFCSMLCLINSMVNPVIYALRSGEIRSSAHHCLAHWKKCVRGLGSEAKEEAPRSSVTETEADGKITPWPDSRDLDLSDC

Sequence of Cannabinoid receptor 1 (P21554 whole entry): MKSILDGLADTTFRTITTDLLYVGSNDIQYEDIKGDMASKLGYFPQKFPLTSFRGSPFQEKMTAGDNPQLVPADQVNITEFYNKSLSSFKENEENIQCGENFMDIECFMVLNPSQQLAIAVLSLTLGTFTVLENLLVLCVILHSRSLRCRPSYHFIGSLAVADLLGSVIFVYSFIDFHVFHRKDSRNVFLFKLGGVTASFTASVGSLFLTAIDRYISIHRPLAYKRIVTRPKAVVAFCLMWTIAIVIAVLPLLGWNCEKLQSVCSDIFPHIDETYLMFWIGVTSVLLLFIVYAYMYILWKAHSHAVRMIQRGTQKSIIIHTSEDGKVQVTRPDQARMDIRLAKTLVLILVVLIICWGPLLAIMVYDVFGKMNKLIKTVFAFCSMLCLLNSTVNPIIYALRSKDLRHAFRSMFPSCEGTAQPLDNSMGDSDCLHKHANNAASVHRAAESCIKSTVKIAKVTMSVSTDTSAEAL

Row | Structure (SMILES) | EC50 [1] [nM] | EC50 [2] [nM]
1 | CCN(C(=O)c1cnc(N2CC(F)(F)C2)c(OCC2CC2)n1)C(C)C | > 10000 | 19.9
2 | CC1(C)CCCN1C(=O)c1cnc(C2CC2)c(OCC2CC2)n1 | > 10000 | 11.2
3 | NC(=O)[C@@H]1CC(F)(F)CN1C(=O)c1cnc(C2CC2)c(OCC2CC2)n1 | > 10000 | 23.5
